ChEMBL document CHEMBL5291721, “A preclinical secondary pharmacology resource illuminates target-adverse drug reaction associations of marketed drugs” (Nat Commun, 2023)

Experiments:
[1] = molecular target: Receptor tyrosine-protein kinase erbB-2 (Homo sapiens, UniProt P04626); assay type: functional
[2] = molecular target: T1, Alpha-1A adrenergic receptor (Homo sapiens, UniProt P35348)
T1 sequence (P35348 whole entry): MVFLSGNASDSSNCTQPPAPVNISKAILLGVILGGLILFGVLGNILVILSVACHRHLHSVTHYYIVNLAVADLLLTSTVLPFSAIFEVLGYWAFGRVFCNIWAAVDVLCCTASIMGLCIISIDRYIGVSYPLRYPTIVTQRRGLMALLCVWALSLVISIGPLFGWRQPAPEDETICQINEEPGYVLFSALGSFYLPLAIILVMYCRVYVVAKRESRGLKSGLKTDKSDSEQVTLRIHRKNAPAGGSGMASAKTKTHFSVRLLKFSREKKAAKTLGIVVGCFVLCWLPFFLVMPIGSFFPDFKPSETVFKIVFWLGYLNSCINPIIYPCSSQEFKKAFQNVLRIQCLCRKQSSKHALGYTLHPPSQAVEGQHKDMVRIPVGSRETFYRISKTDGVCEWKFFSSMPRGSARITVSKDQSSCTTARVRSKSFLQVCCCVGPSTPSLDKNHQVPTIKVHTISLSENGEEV

[3] = molecular target: Voltage-dependent N-type calcium channel subunit alpha-1B (Rattus norvegicus, UniProt Q02294); assay type: functional
[4] = molecular target: T2, Endothelin receptor type B (Homo sapiens, UniProt P24530)
T2 sequence (P24530 whole entry): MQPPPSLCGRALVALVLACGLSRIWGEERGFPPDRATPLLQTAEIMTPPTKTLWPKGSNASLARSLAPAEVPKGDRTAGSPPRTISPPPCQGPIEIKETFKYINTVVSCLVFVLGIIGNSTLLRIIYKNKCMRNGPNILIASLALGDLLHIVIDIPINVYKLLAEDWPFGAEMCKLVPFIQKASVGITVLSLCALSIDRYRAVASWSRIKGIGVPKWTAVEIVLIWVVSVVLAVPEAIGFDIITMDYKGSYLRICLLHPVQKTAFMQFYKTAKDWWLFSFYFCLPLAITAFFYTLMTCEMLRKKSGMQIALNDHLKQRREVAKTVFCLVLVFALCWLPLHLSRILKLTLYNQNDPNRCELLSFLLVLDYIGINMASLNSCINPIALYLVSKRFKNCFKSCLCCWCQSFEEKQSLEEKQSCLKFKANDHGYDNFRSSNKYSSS

[5] = molecular target: T3, Progesterone receptor (Homo sapiens, UniProt P06401)
T3 sequence (P06401 whole entry): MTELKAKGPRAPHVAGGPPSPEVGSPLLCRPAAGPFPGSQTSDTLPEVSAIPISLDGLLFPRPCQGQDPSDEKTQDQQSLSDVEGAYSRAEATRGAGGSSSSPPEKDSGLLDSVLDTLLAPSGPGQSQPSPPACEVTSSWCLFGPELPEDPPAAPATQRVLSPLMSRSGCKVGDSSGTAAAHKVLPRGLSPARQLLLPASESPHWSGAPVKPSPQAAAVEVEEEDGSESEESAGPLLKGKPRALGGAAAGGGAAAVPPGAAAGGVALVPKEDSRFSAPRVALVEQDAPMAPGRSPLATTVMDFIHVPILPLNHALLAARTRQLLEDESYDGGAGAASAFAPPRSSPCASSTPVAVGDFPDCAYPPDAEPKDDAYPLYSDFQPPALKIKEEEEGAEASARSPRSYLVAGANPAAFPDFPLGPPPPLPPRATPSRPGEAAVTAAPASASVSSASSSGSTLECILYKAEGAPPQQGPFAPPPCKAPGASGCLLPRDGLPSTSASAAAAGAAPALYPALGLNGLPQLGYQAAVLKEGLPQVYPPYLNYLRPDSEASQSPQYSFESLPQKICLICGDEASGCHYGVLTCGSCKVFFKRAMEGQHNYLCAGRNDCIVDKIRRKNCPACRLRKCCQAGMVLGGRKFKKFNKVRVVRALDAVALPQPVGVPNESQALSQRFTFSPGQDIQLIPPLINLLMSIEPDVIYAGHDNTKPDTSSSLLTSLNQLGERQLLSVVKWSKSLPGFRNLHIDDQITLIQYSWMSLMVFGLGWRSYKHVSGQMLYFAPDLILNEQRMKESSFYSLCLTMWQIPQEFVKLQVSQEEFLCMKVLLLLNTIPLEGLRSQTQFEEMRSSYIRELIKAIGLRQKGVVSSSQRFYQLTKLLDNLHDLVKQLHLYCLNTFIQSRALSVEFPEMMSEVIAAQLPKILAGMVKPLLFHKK

[6] = molecular target: Histamine H2 receptor (Homo sapiens, UniProt P25021)
[7] = molecular target: Neurotensin receptor type 1 (Homo sapiens, UniProt P30989)
[8] = molecular target: T4, D(4) dopamine receptor (Homo sapiens, UniProt P21917)
T4 sequence (P21917 whole entry): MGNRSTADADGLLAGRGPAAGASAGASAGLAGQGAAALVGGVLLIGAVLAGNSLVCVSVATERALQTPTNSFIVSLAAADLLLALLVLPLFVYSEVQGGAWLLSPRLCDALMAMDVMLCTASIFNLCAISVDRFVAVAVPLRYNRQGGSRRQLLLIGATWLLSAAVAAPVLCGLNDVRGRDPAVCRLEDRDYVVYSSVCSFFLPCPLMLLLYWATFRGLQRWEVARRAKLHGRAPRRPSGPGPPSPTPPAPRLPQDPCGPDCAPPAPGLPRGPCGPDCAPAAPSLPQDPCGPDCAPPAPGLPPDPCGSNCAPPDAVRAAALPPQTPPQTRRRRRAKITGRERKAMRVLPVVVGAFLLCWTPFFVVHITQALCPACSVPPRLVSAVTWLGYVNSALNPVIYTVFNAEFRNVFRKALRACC

[9] = molecular target: 5-hydroxytryptamine receptor 2B (Homo sapiens, UniProt P41595)
[10] = molecular target: Gamma-aminobutyric acid receptor subunit alpha-1 (Rattus norvegicus, UniProt P62813)
Also: assay procedure not described here.

Sequence of Neurotensin receptor type 1 (P30989 whole entry): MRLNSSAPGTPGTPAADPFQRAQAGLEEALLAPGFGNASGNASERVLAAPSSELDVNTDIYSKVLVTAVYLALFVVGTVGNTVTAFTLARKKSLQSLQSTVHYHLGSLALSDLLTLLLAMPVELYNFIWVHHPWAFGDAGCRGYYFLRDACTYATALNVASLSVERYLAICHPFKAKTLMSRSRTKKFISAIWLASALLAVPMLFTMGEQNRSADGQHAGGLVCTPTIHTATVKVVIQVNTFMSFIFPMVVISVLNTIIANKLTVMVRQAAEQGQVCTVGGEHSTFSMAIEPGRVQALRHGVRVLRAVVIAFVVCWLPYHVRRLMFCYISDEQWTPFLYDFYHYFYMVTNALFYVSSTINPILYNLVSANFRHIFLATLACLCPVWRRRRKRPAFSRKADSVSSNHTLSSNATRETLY
Sequence of Histamine H2 receptor (P25021 whole entry): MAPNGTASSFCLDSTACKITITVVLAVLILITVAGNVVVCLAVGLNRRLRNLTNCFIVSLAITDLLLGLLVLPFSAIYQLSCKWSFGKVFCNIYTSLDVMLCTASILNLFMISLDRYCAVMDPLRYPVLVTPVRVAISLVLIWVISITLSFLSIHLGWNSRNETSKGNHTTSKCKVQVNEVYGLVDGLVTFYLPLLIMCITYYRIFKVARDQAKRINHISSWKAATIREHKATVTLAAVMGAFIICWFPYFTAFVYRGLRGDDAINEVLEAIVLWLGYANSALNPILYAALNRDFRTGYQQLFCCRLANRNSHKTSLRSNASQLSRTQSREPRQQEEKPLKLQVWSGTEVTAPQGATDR
Sequence of Receptor tyrosine-protein kinase erbB-2 (P04626 whole entry): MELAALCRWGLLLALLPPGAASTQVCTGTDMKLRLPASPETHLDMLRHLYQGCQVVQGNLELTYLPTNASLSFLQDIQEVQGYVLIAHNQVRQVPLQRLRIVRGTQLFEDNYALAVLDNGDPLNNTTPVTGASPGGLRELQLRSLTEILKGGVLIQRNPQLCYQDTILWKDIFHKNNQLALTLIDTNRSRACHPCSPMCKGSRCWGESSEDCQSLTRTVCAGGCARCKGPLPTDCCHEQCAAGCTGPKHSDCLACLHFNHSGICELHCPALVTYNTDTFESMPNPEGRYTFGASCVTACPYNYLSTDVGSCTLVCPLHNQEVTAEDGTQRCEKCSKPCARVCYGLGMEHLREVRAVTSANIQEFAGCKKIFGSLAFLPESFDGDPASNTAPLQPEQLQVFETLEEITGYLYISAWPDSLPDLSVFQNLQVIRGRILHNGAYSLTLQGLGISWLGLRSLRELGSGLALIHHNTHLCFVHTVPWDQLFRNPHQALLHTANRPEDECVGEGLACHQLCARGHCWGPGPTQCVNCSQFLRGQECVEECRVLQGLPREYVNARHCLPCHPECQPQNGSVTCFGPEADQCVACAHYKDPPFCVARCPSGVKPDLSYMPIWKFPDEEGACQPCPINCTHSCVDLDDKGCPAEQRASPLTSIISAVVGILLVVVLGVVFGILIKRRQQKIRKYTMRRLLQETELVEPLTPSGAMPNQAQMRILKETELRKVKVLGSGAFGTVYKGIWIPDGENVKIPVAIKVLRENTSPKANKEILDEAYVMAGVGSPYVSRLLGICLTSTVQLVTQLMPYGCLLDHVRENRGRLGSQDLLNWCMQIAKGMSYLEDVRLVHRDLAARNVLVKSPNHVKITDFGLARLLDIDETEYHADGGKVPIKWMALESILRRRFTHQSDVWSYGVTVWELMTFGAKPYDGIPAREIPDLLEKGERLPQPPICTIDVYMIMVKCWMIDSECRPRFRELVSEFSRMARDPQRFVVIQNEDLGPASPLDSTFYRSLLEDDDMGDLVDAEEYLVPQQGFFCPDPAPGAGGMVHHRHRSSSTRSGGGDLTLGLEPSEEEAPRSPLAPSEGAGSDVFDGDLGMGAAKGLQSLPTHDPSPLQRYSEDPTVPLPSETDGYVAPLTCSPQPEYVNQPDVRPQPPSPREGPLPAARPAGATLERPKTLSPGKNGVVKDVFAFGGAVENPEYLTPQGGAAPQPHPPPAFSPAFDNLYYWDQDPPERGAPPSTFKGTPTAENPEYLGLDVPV
Sequence of Voltage-dependent N-type calcium channel subunit alpha-1B (Q02294 whole entry): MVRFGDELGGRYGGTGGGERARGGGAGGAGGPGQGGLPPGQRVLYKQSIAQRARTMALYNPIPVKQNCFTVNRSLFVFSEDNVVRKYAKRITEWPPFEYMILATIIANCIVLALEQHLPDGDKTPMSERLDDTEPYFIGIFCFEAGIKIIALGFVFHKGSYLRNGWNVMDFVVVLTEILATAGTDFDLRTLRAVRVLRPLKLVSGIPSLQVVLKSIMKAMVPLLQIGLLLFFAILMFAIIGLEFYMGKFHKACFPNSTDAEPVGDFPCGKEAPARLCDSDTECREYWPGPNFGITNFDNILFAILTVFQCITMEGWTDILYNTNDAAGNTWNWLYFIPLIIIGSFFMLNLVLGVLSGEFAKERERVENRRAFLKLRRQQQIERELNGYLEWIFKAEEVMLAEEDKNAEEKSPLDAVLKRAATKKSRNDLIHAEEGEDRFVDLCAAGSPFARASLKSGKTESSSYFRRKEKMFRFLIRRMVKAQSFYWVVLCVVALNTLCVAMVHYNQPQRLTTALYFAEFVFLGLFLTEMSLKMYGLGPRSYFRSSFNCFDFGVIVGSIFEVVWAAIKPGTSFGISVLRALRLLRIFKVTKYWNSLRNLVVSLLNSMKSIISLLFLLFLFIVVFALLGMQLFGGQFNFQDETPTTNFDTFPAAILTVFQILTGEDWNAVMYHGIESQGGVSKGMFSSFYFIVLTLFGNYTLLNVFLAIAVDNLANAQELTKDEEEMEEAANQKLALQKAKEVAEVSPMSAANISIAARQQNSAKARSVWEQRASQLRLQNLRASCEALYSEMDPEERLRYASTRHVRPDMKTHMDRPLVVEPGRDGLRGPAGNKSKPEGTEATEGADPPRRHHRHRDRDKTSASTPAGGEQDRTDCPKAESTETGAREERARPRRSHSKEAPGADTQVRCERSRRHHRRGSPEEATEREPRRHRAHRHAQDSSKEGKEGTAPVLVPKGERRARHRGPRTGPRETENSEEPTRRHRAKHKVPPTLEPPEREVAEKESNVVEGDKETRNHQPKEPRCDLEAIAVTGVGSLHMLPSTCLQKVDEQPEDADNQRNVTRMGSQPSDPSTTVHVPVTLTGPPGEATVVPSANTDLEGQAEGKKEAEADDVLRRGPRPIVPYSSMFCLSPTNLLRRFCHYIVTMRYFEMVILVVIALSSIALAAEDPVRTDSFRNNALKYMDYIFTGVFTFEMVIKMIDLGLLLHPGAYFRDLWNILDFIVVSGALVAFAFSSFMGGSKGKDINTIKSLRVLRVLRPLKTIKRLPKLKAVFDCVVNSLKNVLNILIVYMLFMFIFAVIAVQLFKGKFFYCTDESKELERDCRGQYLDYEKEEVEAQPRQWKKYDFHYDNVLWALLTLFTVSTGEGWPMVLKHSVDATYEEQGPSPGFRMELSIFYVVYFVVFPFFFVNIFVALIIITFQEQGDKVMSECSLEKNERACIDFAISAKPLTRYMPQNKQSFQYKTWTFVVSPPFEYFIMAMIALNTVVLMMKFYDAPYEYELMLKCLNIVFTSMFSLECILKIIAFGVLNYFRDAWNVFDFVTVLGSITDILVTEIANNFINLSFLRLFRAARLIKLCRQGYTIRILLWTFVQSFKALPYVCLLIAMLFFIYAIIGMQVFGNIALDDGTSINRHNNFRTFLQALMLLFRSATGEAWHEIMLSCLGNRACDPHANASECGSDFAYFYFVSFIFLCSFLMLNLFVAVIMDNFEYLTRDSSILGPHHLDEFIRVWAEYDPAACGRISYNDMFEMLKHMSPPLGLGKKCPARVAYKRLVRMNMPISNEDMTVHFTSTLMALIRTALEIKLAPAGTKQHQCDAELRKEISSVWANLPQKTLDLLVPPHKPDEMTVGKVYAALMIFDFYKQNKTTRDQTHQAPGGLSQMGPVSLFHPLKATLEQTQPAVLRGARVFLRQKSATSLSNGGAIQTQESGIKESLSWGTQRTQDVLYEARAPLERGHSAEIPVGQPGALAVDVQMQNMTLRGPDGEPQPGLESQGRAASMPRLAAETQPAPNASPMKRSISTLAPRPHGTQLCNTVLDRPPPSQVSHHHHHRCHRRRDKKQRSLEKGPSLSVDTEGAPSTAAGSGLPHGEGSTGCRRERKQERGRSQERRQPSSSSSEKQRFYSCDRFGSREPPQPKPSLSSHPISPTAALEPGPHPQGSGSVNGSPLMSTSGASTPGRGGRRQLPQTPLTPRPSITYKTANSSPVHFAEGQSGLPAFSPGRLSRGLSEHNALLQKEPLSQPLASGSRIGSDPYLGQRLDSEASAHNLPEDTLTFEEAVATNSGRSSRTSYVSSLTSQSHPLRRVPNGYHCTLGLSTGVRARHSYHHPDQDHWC
Sequence of 5-hydroxytryptamine receptor 2B (P41595 whole entry): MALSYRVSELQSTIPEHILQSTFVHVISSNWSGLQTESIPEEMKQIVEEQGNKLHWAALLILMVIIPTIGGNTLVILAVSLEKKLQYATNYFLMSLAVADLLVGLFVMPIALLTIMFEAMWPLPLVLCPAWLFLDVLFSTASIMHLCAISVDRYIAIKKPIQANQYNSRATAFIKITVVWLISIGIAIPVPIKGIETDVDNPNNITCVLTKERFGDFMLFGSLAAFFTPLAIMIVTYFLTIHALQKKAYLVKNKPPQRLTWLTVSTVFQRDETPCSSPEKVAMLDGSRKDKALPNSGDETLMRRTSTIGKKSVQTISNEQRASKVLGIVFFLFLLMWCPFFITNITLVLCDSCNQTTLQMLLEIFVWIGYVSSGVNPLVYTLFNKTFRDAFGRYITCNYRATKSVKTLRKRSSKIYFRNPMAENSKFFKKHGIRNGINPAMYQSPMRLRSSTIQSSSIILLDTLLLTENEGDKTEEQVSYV

| Compound | AC50 [1] [µM] | AC50 [2] [µM] | AC50 [3] [µM] | AC50 [4] [µM] | AC50 [5] [µM] | AC50 [6] [µM] | AC50 [7] [µM] | AC50 [8] [µM] | AC50 [9] [µM] | AC50 [10] [µM] |
| --- | --- | --- | --- | --- | --- | --- | --- | --- | --- | --- |
| CN(C)CCC=C1c2ccccc2C(C)(C)c2ccccc21 | > 30 | – | – | – | – | – | – | – | – | – |
| CCOC(=O)[C@H](CCc1ccccc1)N[C@@H](C)C(=O)N1[C@H](C(=O)O)C[C@@H]2CCC[C@@H]21 | – | > 10 | > 10 | > 30 | > 30 | > 10 | > 30 | > 10 | > 10 | – |
| CC[C@H]1OC(=O)[C@H](C)[C@@H](O[C@H]2C[C@@](C)(OC)[C@@H](O)[C@H](C)O2)[C@H](C)[C@@H](O[C@@H]2O[C@H](C)C[C@H](N(C)C)[C@H]2O)[C@](C)(O)C[C@@H](C)CN(C)[C@H](C)[C@@H](O)[C@]1(C)O [AZITHROMYCIN] | – | > 10 | > 10 | > 30 | > 30 | > 10 | > 30 | > 10 | > 10 | > 30 |
| NCC(CC(=O)O)c1ccc(Cl)cc1 (stereo unspecified) [BACLOFEN] | > 30 | > 10 | > 10 | > 30 | > 30 | > 10 | > 30 | > 10 | > 10 | – |
| CC(C)C[C@H]1C(=O)N2CCC[C@H]2[C@]2(O)O[C@](NC(=O)[C@@H]3C=C4c5cccc6[nH]c(Br)c(c56)C[C@H]4N(C)C3)(C(C)C)C(=O)N12 [BROMOCRIPTINE] | > 30 | – | > 10 | > 30 | > 30 | 1.69 | > 30 | – | 0.412 | > 30 |
| Cc1ccc(-c2cc(C(F)(F)F)nn2-c2ccc(S(N)(=O)=O)cc2)cc1 [CELECOXIB] | – | > 10 | > 10 | > 30 | > 30 | > 10 | > 30 | > 10 | > 10 | – |
| CC1=C(C(=O)O)N2C(=O)[C@@H](NC(=O)[C@H](N)c3ccccc3)[C@H]2SC1 [CEPHALEXIN ANHYDROUS] | – | > 10 | > 10 | > 30 | > 30 | > 10 | > 30 | > 10 | – | – |
| CN(C)CCC(c1ccc(Cl)cc1)c1ccccn1 (stereo unspecified) [CHLORPHENIRAMINE] | – | > 10 | > 10 | > 30 | > 30 | 0.412 | > 30 | > 10 | 4.06 | – |
| O=C(OCC(O)CO)c1ccccc1Nc1ccnc2cc(Cl)ccc12 (stereo unspecified) [GLAFENINE] | > 30 | – | – | – | – | – | – | – | – | – |
| CCC(C)n1ncn(-c2ccc(N3CCN(c4ccc(OCC5COC(Cn6cncn6)(c6ccc(Cl)cc6Cl)O5)cc4)CC3)cc2)c1=O (stereo unspecified) [ITRACONAZOLE] | – | > 10 | > 10 | > 30 | > 30 | > 10 | > 30 | > 10 | > 10 | – |
| c1ccc([C@H]2CN3CCSC3=N2)cc1 [LEVAMISOLE] | > 30 | – | – | – | > 30 | – | – | – | – | – |
| C[C@H]1CNCCc2ccc(Cl)cc21 [LORCASERIN] | > 30 | – | – | – | – | – | – | – | – | – |
| C[C@@H](O)[C@H]1C(=O)N2C(C(=O)O)=C(S[C@@H]3CN[C@H](C(=O)N(C)C)C3)[C@H](C)[C@H]12 [MEROPENEM] | > 300 | – | – | – | – | – | – | – | – | – |
| CNC1Cc2ccccc2N(C)c2ccccc21 (stereo unspecified) [METAPRAMINE] | > 30 | – | – | – | – | – | – | – | – | – |
| COc1ccc(CC(C)(C)NC[C@H](O)c2cc(O)cc3c2OCC(=O)N3)cc1 [OLODATEROL] | > 30 | – | – | – | – | – | – | – | – | – |
| C1CCC(C(CC2CCCCN2)C2CCCCC2)CC1 (stereo unspecified) [PERHEXILINE] | > 30 | – | – | – | – | – | – | – | – | – |
| c1cnc(N2CCN(Cc3ccc4c(c3)OCO4)CC2)nc1 [PIRIBEDIL] | > 30 | – | – | – | – | – | – | – | – | – |
| Cc1c(C(=O)NN2CCCCC2)nn(-c2ccc(Cl)cc2Cl)c1-c1ccc(Cl)cc1 [RIMONABANT] | > 30 | 13.7 | > 10 | > 30 | > 30 | 10.9 | > 30 | > 10 | > 10 | – |
| CS(=O)(=O)c1ccc(C2=C(c3ccccc3)C(=O)OC2)cc1 [ROFECOXIB] | – | > 10 | > 10 | > 30 | > 30 | > 10 | > 30 | > 10 | > 10 | – |
| Cc1cn([C@H]2C=C[C@@H](CO)O2)c(=O)[nH]c1=O [STAVUDINE] | – | > 10 | > 10 | > 30 | > 30 | > 10 | > 30 | > 10 | > 10 | > 30 |
| Cn1nnc2c(C(N)=O)ncn2c1=O [TEMOZOLOMIDE] | > 30 | > 10 | > 10 | > 30 | > 30 | > 10 | > 30 | > 10 | > 10 | – |
| Clc1ccc2nsnc2c1NC1=NCCN1 [TIZANIDINE] | – | 1.92 | > 10 | > 30 | > 30 | > 10 | > 30 | – | > 10 | – |
| N[C@@H]1[C@H]2CN(c3nc4c(cc3F)c(=O)c(C(=O)O)cn4-c3ccc(F)cc3F)C[C@@H]12 [TROVAFLOXACIN] | > 30 | – | – | – | – | – | – | – | – | – |
| Cc1cn([C@H]2C[C@H](N=[N+]=[N-])[C@@H](CO)O2)c(=O)[nH]c1=O [ZIDOVUDINE] | – | > 10 | > 10 | > 30 | > 30 | > 10 | > 30 | > 10 | – | > 30 |
